Results from patent publication US20140154717A1, “METHOD FOR DETECTING CANCER CELL USING FLUORESCENTLY LABELED L-GLUCOSE DERIVATIVE, AND CANCER CELL-IMAGING AGENT COMPRISING FLUORESCENTLY LABELED L-GLUCOSE DERIVATIVE” (priority 2011, published 2014).
Entries after “also recorded” stand apart in the source; their conditions may differ. One block for each compound: values may come before it.

How the values were obtained:
[1] = Maximum excitation and fluorescence wavelength; format: physicochemical
tumor cells (C6 glioma) = assay: In vivo fluorescent imaging using C6 tumor model mice (rat glioma C6 cells transplanted subcutaneously in nude mice); parameters: species or system mouse
Procedure: C6 cells were prepared according to an ordinary method so that the cell number was 2×10^7 cells/mL.
C6 cells were seeded on a 10 cm petri dish, allowed to stand still in a CO2 incubator, and cultured at 37° C. The culture medium was exchanged once every two days.
1 g/L glucose-containing Dulbecco's modified Eagle's Medium (DMEM) (Nacalai No. 08456-65), to which Fetal Bovine Serum (Equitech-Bio SFBM) was added so that the final concentration was 10% and penicillin-streptomycin (Nacalai No. 26253-84) was added so that the final concentration was 1%, was used.
5 to 6-week old athymic nude mice (BALB/cAJcl-nu/nu) were transplanted with 50 μL of a cell suspension adjusted to 2×10^7 cells/mL subcutaneously around the root of right hind paw, under isoflurane anesthesia. The transplanted tumor cells were observed until growing to about 200 to 300 mm^3, and used in vivo fluorescent imaging.
C6 tumor model mice were allowed to stand still in an in vivo fluorescence imaging apparatus IVIS (registered trademark) Kinetics (Caliper Life sciences) under isoflurane anesthesia and autofluorescence of the mouse skin was measured, and subsequently, 400 nmol (100 μL) of 2-NBDLG or 2-NBDG dissolved in physiological saline was administered from the tail vein over a period of 30 seconds, and measurement of the fluorescence imaging was started again from one minute after starting administration. The in vivo fluorescence imaging was measured at an excitation wavelength of 465 nm using a GFP filter (transmittable fluorescence wavelength: 515-575 nm). The measurement was conducted for 45 minutes, and images were taken every one minute during the initial 20 minute and every 5 minutes from 20 to 45 minutes, obtaining 25 images in total. The accumulated values (fluorescence value) of 2-NBDLG and 2-NBDG in the interested area were obtained by subtracting the autofluorescence images from the 25 images taken after administration of 2-NBDLG or 2-NBDG.
A vial of 0.5 mg of 2-NBDLG or 2-NBDG was dissolved in 400 μL of physiological saline directly before the experiment, to prepare a solution having a final concentration of 400 nmol/100 μL.

[2] = system: mouse insulinoma cells (MIN6); assay: Uptake into MIN6 cells with or without inhibitors, fluorescence microplate reader (Flex Station); format: cell-based; conditions: 200 μM, 5 minutes
Procedure: A difference in the uptake of 2-NBDLG (200 μM) and 2-NBDG (200 μM) into mouse insulinoma cells (MIN6) each applied for 5 minutes was analyzed quantitatively by a fluorescence microplate reader Flex Station (manufactured by Molecular Devices Corporation) in the condition whether or not various inhibitors are present. The well used for measurement was a 96-well clear bottomed well plate μ CLEAR-PLATE (Greiner bio-one, BLACK, 96 well, #655090) having longitudinally […] to 12 twelve columns, and MIN6 cell suspension prepared at a proportion of 6×10^5 cells/mL was seeded uniformly into wells from line B to line G at the third column and the fifth column each in an amount of 15 μL. For medium exchange, the half quantity was exchanged every two days in 0 to 4 DIV (days in vitro), and from 5 DIV or later, exchanged every day, and on days 10 to 13 (10 to 13 DIV), the cells were subjected to an experiment. Line A and line H were used as a control for checking correct washout, without seeding cells. In the fourth column, cells were not present, and wells in this column were used as a blank containing only Krebs Ringer buffer solution (KRB, containing 0.1 mM gap junction inhibitor carbenoxolone and 5.6 mM glucose). Evaluation was done in a way that 2-NBDLG or 2-NBDG was charged in each tube of a 8-strip PCR tube, and sucked using a 8-channel pipette and dropped simultaneously into wells. In this way, administration to wells for 2-NBDLG and to wells for 2-NBDG can be done simultaneously, making reliable evaluation possible. As described above, cells are present in 12 wells in the third and the fifth two columns, and these were divide into 4 groups each having 3 wells according to a difference either 2-NBDLG or 2-NBDG and whether an inhibitor is present or absent. Specifically, when checking the effect by the presence or absence of a GLUT inhibitor Cytochalasin B (10 μM) on the uptake of 2-NBDLG (200 μM) and 2-NBDG (200 μM), first, in wells, which are planned to be measured in the presence of Cytochalasin B, Cytochalasin B was added 5 minutes prior to the administration of the fluorescently labeled glucose derivative. Before administration of a fluorescently labeled glucose derivative, the autofluorescence was measured in each well. The measurement was done with Flex Station in Well Scan Mode and in the Bottom Read position at Ex 470 nm, Em 540 nm, Cut off 495 nm, Averaging 3, and Photomultiplier sensitivity: high. In Well Scan Mode of the fluorescence microplate reader Flex Station, one well was divided into nine observation areas and these are measured independently. The presence of approximately 5000 cells in each of 9-divided areas was separately confirmed by Z section measurement of a realtime deconvolution microscope. 2-NBDG and 2-NBDLG were administered with or without Cytochalasin B (37° C., 5 minutes), and after cessation of administration, an operation of adding 250 μL of a KRB solution containing no fluorescently labeled glucose into 50 μL of a solution in a well was repeated 7 times while measuring with a stopwatch, thereby performing washout until the fluorescence intensities of wells in line A and line H set as a control group became equal to the fluorescence intensity of the blank well containing no cell. This process required 7 minutes, and even if cells having broken plasma membrane condition are brought into contact with 2-NBDG and 2-NBDLG, and even if these compounds are once taken up into the cell, these compounds are already eliminated out of the cell and are washed away in measurement, therefore, contribution to an increase in the fluorescence intensity in the whole observation area was judged to be in an ignorable level. This was supported by a separate pharmacological inhibition experiment in which the increase in the fluorescence intensity nearly disappears in the presence of an inhibitor. The above-described method was carried out similarly in the case of other inhibitors. […]

[3] = system: acutely dissociated neurons; assay: Confocal imaging of 2-NBDLM+2-TRLG mixture in acutely dissociated neurons of substantia nigra pars reticulata; format: cell-based, mouse
Procedure: NaCl 150 mM, KCl 5 mM, MgCl2 1 mM, CaCl2 2 mM, HEPES 10 mM, pH was adjusted to 7.4 by 1M Tris(2-amino-2-hydroxymethyl-1,3-propanediol) solution. The glucose concentration was 10 mM. For the purpose of inhibiting entrance and elimination of fluorescently labeled mannose via a gap junction/hemichannel, 0.1 mM Carbenoxolone (SIGMA #C4790) was added.
NaCl 124 mM, NaHCO3 26 mM, KCl 5 mM, KH2PO4 1.24 mM, CaCl2 2.4 mM, MgSO4.7H2O 1.3 mM, Glucose 10 mM, adjusted to pH7.4 by 95% O2-5% CO2 aeration.
A solution prepared by dissolving 5 mg of poly-L-lysine hydrobromide (SIGMA P6282) in 50 mL of 0.15 M boric acid (adjusted to pH 8.4 with […]) was stocked and refrigerated. This stock solution was diluted at 1/500 to 1/1000 with 0.15 M boric acid, and a cover slip (13 mm×22 mm, Matsunami No. 0 glass) was immersed in the diluted solution and allowed to fix at room temperature for 20 minutes, then, rinsed with distilled water and naturally dried.
Since 2-NBDLM is a stereoisomer of 2-NBDLG and both compounds have the same molecular weight, these compounds were prepared by basically the same method as for preparation of 2-NBDLG liquid and 2-NBDLG+2-TRLG mixture described in the prior publication WO2010/016587 of the present inventors. The concentration of a solution for the administration was as follows. The whole quantity of a 0.5 mg vial was dissolved in 14.6 mL of a HEPES solution for image acquisition to give a 2-NBDLM solution having a final concentration of 100 μM. The dissolving method was carried out similarly to that for preparation of a 2-NBDLG solution in Example 3.
Acutely dissociated neuronal cells were prepared as described below according to the same method as described in the prior publication WO2010/016587 of the present inventors.
Postnatal 13 to 17-day old (juvenile stage) C57BL/6J mice were anesthetized deeply with urethane (i.p. 1.6 g/kg), decapitated according to an ordinary method, then, brain was taken out while pouring a cold Ringer's solution (0° C.) for dissociation, and placed on an ice-cold petri dish and immediately trimmed, then, coronally sectioned brain slices having a thickness of 400 or 500 μm were prepared by a linear slicer (Dosaka Pro7) in a cold Ringer's solution (0° C.). Then, the slice was allowed to restore for 1 hour at room temperature in a chamber (Acrylic incubation chamber manufactured by Harvard Apparatus) containing the above-described Ringer's solution circulating therein through which 95% O2-5% CO2 had been aerated.
The brain slice was immersed in an enzyme solution (31° C.; kept at pH7.4 by aeration with 95% O2-5% CO2) prepared by dissolving a proteolytic enzyme Pronase (10 mg/60 mL) in the above-described Ringer's solution and enzymatically treated. After predetermined period, the enzymatic reaction was stopped by immediately immersing the brain slice in 50-100 mL of a 10 mM glucose-containing HEPES solution at room temperature.
A 60 or 100 mm plastic dish having a silicon plate attached to the bottom was filled with a 10 mM glucose-containing HEPES solution (room temperature, obtained by removing Carbenoxolon from a HEPES solution for confocal image acquisition), and the above-described brain slice was immersed in the solution. Two 27 gauge syringe needles were used to immobilize the brain slice, and left and right mesencephalic substantia nigra pars reticulata were punched out under a microscope with a 18 gauge syringe needle having a tip deformed into an ellipsoidal shape, and preserved at room temperature in the above-described HEPES solution (35 mm culture dish).
Neurons were dissociated by trituration with glass pipettes adjusted to have various point diameters, and allowed to adhere to a glass cover slip coated with poly-L-lysine.
Administration of a mixture was carried out in the same manner as the method of administration to MIN6 cells described in Example 3 (4) to (6).

[4] = 100 μM 2-NBDLM+20 μM 2-TRLG for 5 minutes

- Maximum fluorescence wavelength [1]: 570 nm
SMILES: CN(C)S(=O)(=O)c1ccc(N[C@H](C=O)[C@H](O)[C@@H](O)[C@@H](O)CO)c2nonc12 [2-DBDLG]

SMILES: O=[N+]([O-])c1ccc(NC2C(O)OC(CF)[C@H](O)C2O)c2nonc12 (stereo partly drawn) [6-F-2-NBDLG, 2,6-Dideoxy-6-fluoro-2-[N-(7-nitrobenz-2-oxa-1,3-diazol-4-yl)amino]-L-glucopyranose]
- Maximum excited wavelength [1]: 472 nm
- Maximum fluorescence wavelength [1]: 538 nm

SMILES: O=[N+]([O-])c1ccc(NC2C(O)OC(CO)[C@@H](O)[C@@H]2O)c2nonc12 (stereo partly drawn) [2-NBDG, 2-[N-(7-nitrobenz-2-oxa-1,3-diazole-4-yl)amino]-2-deoxy-D-glucose, reference compound]
- fluorescence values at tumor-transplanted part (Tumor) versus normal tissue (BG), FIG. 3 (tumor cells (C6 glioma); 400 nmol i.v., temporal change over 45 minutes, same result in 6 examples): fluorescence values at normal tissue (red square, BG) are larger than at the tumor-transplanted part
- time from which accumulations at the tumor cell-transplanted part were recognized (tumor cells (C6 glioma); 400 nmol/100 μL from the tail vein): around 5 minutes after administration
- contrast between tumor-transplanted part and normal tissue (adipocyte-rich dorsal part near neck) (tumor cells (C6 glioma); 400 nmol/100 μL from the tail vein, non-fasted mice): poor contrast; also recorded: not sufficient
- uptake/accumulation in normal tissue (tumor cells (C6 glioma); 400 nmol/100 μL from the tail vein, normal tissue (fat tissue on the back, between back bones, muscle)): Intense accumulations
- effect of GLUT inhibitor Cytochalasin B on uptake into MIN6 cells ([2]; 37° C., Cytochalasin B (10 µM, CB)): significant decrease
- uptake into MIN6 cells in buffer containing Na+ versus no Na+ ion (SGLT) ([2]; 37° C., Na(−) buffer, choline substituted): no significant difference
- effect of Phloretin on uptake into MIN6 cells ([2]; Phloretin (150 μM, PHT)): underwent inhibition of the uptake

SMILES: O=[N+]([O-])c1ccc(NC2C(O)OC(CO)[C@H](O)C2O)c2nonc12 (stereo partly drawn) [2-NBDLM, 2-Deoxy-2-[N-(7-nitrobenz-2-oxa-1,3-diazol-4-yl)amino]-L-mannose]
- Maximum excited wavelength [1]: 472 nm
- Maximum fluorescence wavelength [1]: 539 nm
- fluorescence in degraded cells, 10 minutes after cessation of administration ([3]; 100 μM 2-NBDLM+20 μM 2-TRLG): already decreased significantly
- fluorescence in healthy neuron, 10 minutes after cessation of administration ([3]; 100 μM 2-NBDLM+20 μM 2-TRLG): preserved in the cell
- fluorescence in healthy neuron, 22 minutes after cessation of administration ([3]; 100 μM 2-NBDLM+20 μM 2-TRLG): preserved in the cell
- uptake into healthy neuron, 2 minutes after cessation of administration ([3]; 100 μM 2-NBDLM+20 μM 2-TRLG): all cells take up
- uptake into normal neurons (conclusion) ([3]; 100 μM 2-NBDLM+20 μM 2-TRLG): taken up into normal mouse neurons
- uptake into degraded cells during administration [3, 4]: completely invading a cell
- uptake into healthy neuron during administration [3, 4]: taken up into a cell during administration
